From PMC7351026, “Serum Half-Lives for Short- and Long-Chain Perfluoroalkyl Acids after Ceasing Exposure from Drinking Water Contaminated by Firefighting Foam” (Environmental Health Perspectives, 2020)

Key:
[1] = PFAS levels in serum samples of airport employees (LC/MS/MS)
Text: All 26 employees at the airport were invited for a blood sampling between 11 and 14 September 2018 (i.e., within 11 to 14 d after the termination of contaminated drinking-water exposure). Information on age, home address, employment history, working tasks, and sick leave and vacation days in August and September were collected by questionnaire. In addition, data on the number of glasses of water consumed per day, local fish consumption, and history of blood donation and medication were collected. For female employees, questions about menstruation, pregnancy, and duration of breast-feeding were asked.
The PFAS analysis in serum from the first sampling was immediately performed and personal results were reported to the employees. […] These 17 employees submitted four rounds of blood and first morning urine samples in parallel, at 1-month intervals. In total, there were five rounds of serum sampling (started from September) and four rounds of urine sampling (from October). For modeling of elimination, all samples were reanalyzed in a single batch. We obtained 83 serum samples with a median count of 5 (range: 4–5) samples per employee, and 59 urine samples with median of 4 (range: 1–4) samples per employee. Only one employee provided a single urine sample. The study was approved by the Regional Ethical Review Board in Lund, Sweden. All employees provided written informed consent.
Venous whole blood samples were obtained and were centrifuged for 10 min at 1,500×g at room temperature to isolate the serum on site. The serum samples were collected in 6-mL BD Vacutainer® Plus plastic serum tubes without gel (BD). Urine samples were collected in 13-mL polypropylene screw cap tubes (Sarstedt). Serum and urine samples were frozen at −20°C after sampling and transported to Lund using cold chain logistics. Serum and urine samples were stored at −80°C and −20°C , respectively, before analysis.
The serum samples, QC samples, and chemical blanks were prepared in 96-well plates with 1.5-mL flat-bottom glass vials (Biotech solutions). Serum samples were thawed for 1–2 h and mixed on a vortex shaker for approximately 10 s two times. Once after all samples were thawed and a second time before pipetting the serum to the plate. Before pipetting, the tip was pre-wetted several times, drawing a volume into the tip and dispensing it back into the tube. Sample preparation procedures for serum samples consisted of 25μL serum mixed with 25μL water, 25μL methanol, 25μL isotopically labeled internal standards in 50% acetonitrile (see Table S1), and 100μL acetonitrile. Thereafter, samples were mixed vigorous by shaking for 30 min and centrifuged at 2,600×g for 10 min at room temperature. The supernatant ( 0.2mL ) was transferred to 96-well plates with 0.5-mL conical glass vials (MicroLiter Analytical Supplies) and again centrifuged at 3,000×g for 10 min before analysis. The QC samples and chemical blanks were prepared following the same procedure as the serum samples. The calibration standards were prepared in FBS the same way as the samples, except for the addition of diluted reference standards of all analyzed compounds in 25μL of the methanol solution.
Aliquots of 4μL of the sample were analyzed using LC/MS/MS. For the analysis, a C18 column ( 4μm , 2.1mm i.d.×50mm , Genesis Lightning) was used prior to the injector to filter the mobile phases. The analytical column was an Aquity BEH ( 1.7μm , 2.1mm i.d.×100mm Waters). The mobile phases (A and B) were A: 5 mM ammonium acetate in water:methanol (50:50); and B: methanol. The mobile phase was kept at 0% B for 2.5 min after injection. A gradient was then applied over 11 min to 90% B, where it was then kept for 1.5 min. The column was then conditioned at 0% B for 2 min.

[2] = Individual serum elimination rate and half-life (linear regression per employee); details: individual estimate;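 for HL (half-life): half-life in years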
Protocol: Serum PFAS concentrations were log-transformed. Time was calculated as the elapsed days between supply of clean bottled water and […] blood sampling. We assumed one compartment, first-order elimination kinetics. In this kinetic model, the body is considered as one homogeneous volume in which mixing is instantaneous and from which PFAS could be absorbed, transferred, and eliminated according to the rate of elimination that is proportional to the concentration of PFAS in the body. Two methods were used to estimate serum elimination rate constant (k) and half-life for each PFAS:
Method 2: For estimation of individual k, linear regression was used to derive the slope ( β ) of the logarithm of serum concentrations vs. time for each employee. The negative value of the slope ( −β ) for each individual was equivalent to the individual k, and individual serum elimination half-life was calculated as ln2/k for each PFAS. If β was positive (i.e., PFAS concentrations tended to increase over the five samplings), the half-life was not calculated.

[3] = 1st sampling (September 2018), count 17
[4] = 2nd sampling (October 2018), count 17
[5] = 3rd sampling (November, 2018), count 17
[6] = 4th sampling (December 2018), count 16
[7] = 5th sampling (January 2019), count 16
[8] = employees participated in first blood sampling and repeated blood and urine sampling, N=17
[9] = employees participated in first blood sampling only, N=9, 11-14 d after end of exposure
[10] = median of first serum samples, all 26 airport employees

O=S(=O)(O)C(F)(C(F)(F)F)C(F)(F)C(F)(F)C(F)(F)C(F)(F)C(F)(F)C(F)(F)F (centres unmarked) [1m-PFOS, perfluoro-1-methylheptanesulfonate]
Serum PFAS level, 25 percentile [1, 3]: 0.48 | Serum PFAS level, 75 percentile [1, 3]: 1.8 | Serum PFAS level, Max [1, 3]: 4.1 | Serum PFAS level, Median [1, 3]: 1.0 | Serum PFAS level, Min [1, 3]: 0.32 | Serum PFAS level, 25 percentile [1, 4]: 0.54 | Serum PFAS level, 75 percentile [1, 4]: 1.4 | Serum PFAS level, Max [1, 4]: 4.0 | Serum PFAS level, Median [1, 4]: 0.89 | Serum PFAS level, Min [1, 4]: 0.26 | Serum PFAS level, 25 percentile [1, 5]: 0.54 | Serum PFAS level, 75 percentile [1, 5]: 1.5 | Serum PFAS level, Max [1, 5]: 4.4 | Serum PFAS level, Median [1, 5]: 0.88 | Serum PFAS level, Min [1, 5]: 0.24 | Serum PFAS level, 25 percentile [1, 6]: 0.47 | Serum PFAS level, 75 percentile [1, 6]: 1.3 | Serum PFAS level, Max [1, 6]: 4.3 | Serum PFAS level, Median [1, 6]: 0.91 | Serum PFAS level, Min [1, 6]: 0.24 | Serum PFAS level, 25 percentile [1, 7]: 0.51 | Serum PFAS level, 75 percentile [1, 7]: 1.3 | Serum PFAS level, Max [1, 7]: 4.5 | Serum PFAS level, Median [1, 7]: 0.97 | Serum PFAS level, Min [1, 7]: 0.26 | PFAS in first serum sample, median (range) [1, 8]: 1.0 (0.32–4.1) ng/mL | PFAS in first serum sample, median (range) [1, 9]: 0.52 (0.25–2.7) ng/mL | Initial serum PFAS level, max ([1]; females (N=7)): 1.1 ng/mL | Initial serum PFAS level, median ([1]; females (N=7)): 0.58 ng/mL | Initial serum PFAS level, min ([1]; females (N=7)): 0.39 ng/mL | Initial serum PFAS level, Max ([1]; males (N=19)): 4.1 ng/mL | Initial serum PFAS level, Min ([1]; males (N=19)): 0.25 ng/mL | Initial serum PFAS level, median ([1]; males (N=19)): 1.1 ng/mL | Elimination rate ([2]; subject 1, 5 samples): 0.3 yearly | HL (half-life) ([2]; subject 1, 5 samples): 2.0 year | Elimination rate ([2]; subject 2, 5 samples): 0.1 yearly | HL (half-life) ([2]; subject 2, 5 samples): 5.4 year | Elimination rate ([2]; subject 3, 5 samples): 0.8 yearly | HL (half-life) ([2]; subject 3, 5 samples): 0.9 year | Elimination rate ([2]; subject 4, 5 samples): −0.1 yearly | Elimination rate ([2]; subject 5, 5 samples): 0.1 yearly | HL (half-life) ([2]; subject 5, 5 samples): 5.9 year | Elimination rate ([2]; subject 6, 4 samples): −0.1 yearly | Elimination rate ([2]; subject 7, 5 samples): −0.3 yearly | Elimination rate ([2]; subject 8, 5 samples): −0.5 yearly | Elimination rate ([2]; subject 9, 5 samples): −0.3 yearly | Elimination rate ([2]; subject 10, 5 samples): 0.6 yearly | HL (half-life) ([2]; subject 10, 5 samples): 1.2 year | Elimination rate ([2]; subject 11, 5 samples): 1.9 yearly | HL (half-life) ([2]; subject 11, 5 samples): 0.4 year | Elimination rate ([2]; subject 12, 5 samples): 0.03 yearly | Elimination rate ([2]; subject 13, 5 samples): 1.1 yearly | HL (half-life) ([2]; subject 13, 5 samples): 0.6 year | Elimination rate ([2]; subject 14, 4 samples): 1.7 yearly | HL (half-life) ([2]; subject 14, 4 samples): 0.4 year | Elimination rate ([2]; subject 15, 5 samples): 1.3 yearly | HL (half-life) ([2]; subject 15, 5 samples): 0.6 year | Elimination rate ([2]; subject 16, 5 samples): −0.3 yearly | Elimination rate ([2]; subject 17, 5 samples): 2.2 yearly | HL (half-life) ([2]; subject 17, 5 samples): 0.3 year

O=S(=O)(O)C(F)(F)C(F)(F)C(F)(F)C(F)(F)C(F)(F)C(F)(F)C(F)(F)C(F)(F)F [L-PFOS, linear perfluorooctane sulfonic acid]
Serum PFAS level, 25 percentile [1, 3]: 7.7 | Serum PFAS level, 75 percentile [1, 3]: 15 | Serum PFAS level, Max [1, 3]: 28 | Serum PFAS level, Median [1, 3]: 11 | Serum PFAS level, Min [1, 3]: 5.5 | Serum PFAS level, 25 percentile [1, 4]: 7.6 | Serum PFAS level, 75 percentile [1, 4]: 16 | Serum PFAS level, Max [1, 4]: 24 | Serum PFAS level, Median [1, 4]: 10 | Serum PFAS level, Min [1, 4]: 4.1 | Serum PFAS level, 25 percentile [1, 5]: 7.3 | Serum PFAS level, 75 percentile [1, 5]: 16 | Serum PFAS level, Max [1, 5]: 23 | Serum PFAS level, Median [1, 5]: 11 | Serum PFAS level, Min [1, 5]: 4.7 | Serum PFAS level, 25 percentile [1, 6]: 7.4 | Serum PFAS level, 75 percentile [1, 6]: 14 | Serum PFAS level, Max [1, 6]: 24 | Serum PFAS level, Median [1, 6]: 9.8 | Serum PFAS level, Min [1, 6]: 4.4 | Serum PFAS level, 25 percentile [1, 7]: 9.1 | Serum PFAS level, 75 percentile [1, 7]: 16 | Serum PFAS level, Max [1, 7]: 23 | Serum PFAS level, Median [1, 7]: 10 | Serum PFAS level, Min [1, 7]: 4.5 | Serum level in the first samples, median (range) ([1]; all 26 airport employees): 9.5 (5.4–28) ng/mL | PFAS in first serum sample, median (range) [1, 8]: 11 (5.5–28) ng/mL | PFAS in first serum sample, median (range) [1, 9]: 6.5 (5.4–13) ng/mL | Initial serum PFAS level, max ([1]; females (N=7)): 13 ng/mL | Initial serum PFAS level, median ([1]; females (N=7)): 9.3 ng/mL | Initial serum PFAS level, min ([1]; females (N=7)): 5.5 ng/mL | Relative composition of PFAS in serum, weight basis ([1]; first serum samples, all 26 airport employees): 8.6% | Relative composition of PFAS in serum, molar concentration basis ([1]; first serum samples, all 26 airport employees, listed as PFOS (linear)): 7.0% | Initial serum PFAS level, Max ([1]; males (N=19)): 28 ng/mL | Initial serum PFAS level, Min ([1]; males (N=19)): 5.4 ng/mL | Initial serum PFAS level, median ([1]; males (N=19)): 10 ng/mL | Serum concentration, molar basis [1, 10]: 0.019 | Serum concentration, weight basis [1, 10]: 9.5 | Serum level, median (range) ([1]; second to fifth samplings, 17 airport employees): 10 (4.1–24) ng/mL | Elimination rate ([2]; subject 1, 5 samples): −0.2 yearly | Elimination rate ([2]; subject 2, 5 samples): 0.4 yearly | HL (half-life) ([2]; subject 2, 5 samples): 1.7 year | Elimination rate ([2]; subject 3, 5 samples): 0.5 yearly | HL (half-life) ([2]; subject 3, 5 samples): 1.3 year | Elimination rate ([2]; subject 4, 5 samples): −0.3 yearly | Elimination rate ([2]; subject 5, 5 samples): 0.6 yearly | HL (half-life) ([2]; subject 5, 5 samples): 1.2 year | Elimination rate ([2]; subject 6, 4 samples): 0.04 yearly | HL (half-life) ([2]; subject 6, 4 samples): 17 year | Elimination rate ([2]; subject 7, 5 samples): 0.006 yearly | Elimination rate ([2]; subject 8, 5 samples): −0.4 yearly | Elimination rate ([2]; subject 9, 5 samples): 0.4 yearly | HL (half-life) ([2]; subject 9, 5 samples): 1.8 year | Elimination rate ([2]; subject 10, 5 samples): −0.2 yearly | Elimination rate ([2]; subject 11, 5 samples): 0.1 yearly | HL (half-life) ([2]; subject 11, 5 samples): 4.7 year | Elimination rate ([2]; subject 12, 5 samples): 0.8 yearly | HL (half-life) ([2]; subject 12, 5 samples): 0.9 year | Elimination rate ([2]; subject 13, 5 samples): 0.2 yearly | HL (half-life) ([2]; subject 13, 5 samples): 3.7 year | Elimination rate ([2]; subject 14, 4 samples): 0.3 yearly | HL (half-life) ([2]; subject 14, 4 samples): 2.0 year | Elimination rate ([2]; subject 15, 5 samples): 0.5 yearly | HL (half-life) ([2]; subject 15, 5 samples): 1.3 year | Elimination rate ([2]; subject 16, 5 samples): 0.6 yearly | HL (half-life) ([2]; subject 16, 5 samples): 1.2 year | Elimination rate ([2]; subject 17, 5 samples): 0.3 yearly | HL (half-life) ([2]; subject 17, 5 samples): 2.1 year
